Measured values published in ChEMBL document CHEMBL1142224, “Mapping the elusive neonicotinoid binding site” (Proc Natl Acad Sci U S A, 2007).

Assays:
[1] = Displacement of [3H]ACE from Aplysia AChBP expressed in HEK293S cells by scintillation proximity assay; assay type: cell-based
[2] = Displacement of [3H]EPI from Aplysia AChBP expressed in HEK293S cells by scintillation proximity assay; assay type: cell-based
[3] = Inhibition of [3H]1-((5-azido-6-chloropyridin-3-yl)methyl)-3-methyl-2-nitroguanidine incorporation into AchBP assessed as protection of photoaffinity labeling at 500 pmol; set-up: scale not given: the % may be the effect or the level left

| Compound | Ki [1] [nM] | Ki [2] [nM] | Activity [3] [%] |
| --- | --- | --- | --- |
| CN1CCC[C@H]1c1cccnc1 [NICOTINE] | 415 | 260 | – |
| C/C(=N\C#N)N(C)Cc1ccc(Cl)nc1 [ACETAMIPRID] | 41 | 19 | – |
| Clc1ccc(C2CC3CCC2N3)cn1 (racemic) [EPIBATIDINE] | 14 | 8.6 | – |
| N#C/N=C1\SCCN1Cc1ccc(Cl)nc1 [THIACLOPRID] | 9.9 | 8.4 | – |
| N#C/N=c1\sccn1Cc1cnc(Cl)c(N=[N+]=[N-])c1 | 2.3 | 1.7 | – |
| O=[N+]([O-])/N=C1\NCCN1Cc1ccc(Cl)nc1 [IMIDACLOPRID] | 267 | 180 | 50 |
| N=C1SCCN1Cc1ccc(Cl)nc1 [DESCYANOTHIACLOPRID] | 10 | 8.5 | – |
| CN/C(=N\[N+](=O)[O-])NCc1cnc(Cl)s1 [CLOTHIANIDINE] | 808 | 574 | – |
| CCN(Cc1ccc(Cl)nc1)/C(=C/[N+](=O)[O-])NC [NITENPYRAM] | 335 | 180 | – |
| N=C1NCCN1Cc1ccc(Cl)nc1 [DESNITROIMIDACLOPRID] | 56 | 44 | – |
